According to patent US9302999B2, “Substituted triazoles as herbicides” (E. I. DU PONT DE NEMOURS AND COMPANY, priority 2012, dated 2016):

Key:
Assay type in all cases: in vivo
[1] = tested on: crabgrass, large (large crabgrass, Digitaria sanguinalis); assay: Test A pre-/postemergence: crabgrass, large; conditions: for Crabgrass, Large plant response rating: Postemergence; for Plant response rating, Crabgrass, Large: Preemergence
How it was run: (§1)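 Whole-plant greenhouse assay in loam/sand. Preemergence directed soil spray plus simultaneous postemergence spray (one- to two-leaf stage, 2–10 cm). Rated visually ~10 days later, 0 = no effect, 100 = complete control.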

[2] = tested on: foxtail, giant (giant foxtail, Setaria faberii); assay: Test A pre-/postemergence: foxtail, giant; conditions: for Foxtail, Giant plant response rating: Postemergence; for Plant response rating, Foxtail, Giant: Preemergence
How it was run: as §1

[3] = tested on: morningglory (Ipomoea spp.); assay: Test A pre-/postemergence: morningglory
How it was run: as §1

[4] = tested on: velvetleaf (Abutilon theophrasti); assay: Test A pre-/postemergence: velvetleaf
How it was run: as §1

[5] = tested on: blackgrass (Alopecurus myosuroides); assay: Test C pre-/postemergence: blackgrass
How it was run: (§2)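 Preemergence on seeds in loam/sand, postemergence on 2–18 cm (1–4-leaf) plants in peat-based medium; compounds in non-phytotoxic solvent with surfactant. After 13–15 days in greenhouse, visual rating versus controls, 0 (no effect) to 100 (complete control).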

[6] = tested on: bromegrass, downy (downy bromegrass, Bromus tectorum); assay: Test C pre-/postemergence: bromegrass, downy
How it was run: as §2

[7] = tested on: galium (catchweed bedstraw, Galium aparine); assay: Test C pre-/postemergence: galium
How it was run: as §2

[8] = tested on: johnsongrass (Sorghum halepense); assay: Test C pre-/postemergence: johnsongrass
How it was run: as §2

[9] = tested on: morningglory (Ipomoea coccinea); assay: Test C pre-/postemergence: morningglory
How it was run: as §2

[10] = tested on: nightshade (eastern black nightshade, Solanum ptycanthum); assay: Test C pre-/postemergence: nightshade; conditions: Preemergence
How it was run: as §2

[11] = 125 g ai/ha, 0 to 100 scale, 0 is no effect, 100 is complete control
[12] = 500 g ai/ha, visual rating on 0 to 100 scale (0 no effect, 100 complete control), approximately ten days
[13] = 125 g ai/ha, 0 to 100 scale where 0 is no effect and 100 is complete control
[14] = 500 g ai/ha, 0 to 100 scale (0 no effect, 100 complete control)
[15] = Postemergence, 125 g ai/ha, 0 to 100 scale, 0 is no effect, 100 is complete control
[16] = Preemergence, 125 g ai/ha, 0 to 100 scale where 0 is no effect and 100 is complete control
[17] = Preemergence, 500 g ai/ha, 0 to 100 scale (0 no effect, 100 complete control)
[18] = Postemergence, 31 g ai/ha, scale 0 to 100 (0 no effect, 100 complete control)
[19] = Postemergence, 62 g ai/ha, scale 0 to 100 (0 no effect, 100 complete control)
[20] = Postemergence, 125 g ai/ha, scale 0 to 100, 0 no effect, 100 complete control
[21] = Postemergence, 250 g ai/ha, scale 0 to 100
[22] = Preemergence, 31 g ai/ha, scale of 0 to 100, 0 is no effect, 100 is complete control
[23] = Preemergence, 62 g ai/ha, scale of 0 to 100, 0 is no effect, 100 is complete control
[24] = Preemergence, 125 g ai/ha, scale 0 to 100, 0 no effect, 100 complete control
[25] = Preemergence, 250 g ai/ha, scale 0 to 100, 0 no effect, 100 complete control

Question: For `Cc1nn(-c2ccc(C(F)(F)F)c(F)c2)nc1Oc1ccnc(C(F)(F)F)c1` [Compound 148], which “Crabgrass, Large plant response rating” value [1, 11] is on record?
Answer: 80

Question: What about the “Crabgrass, Large plant response rating” value [1, 12] of the same compound?
Answer: 80

Question: And the “Plant response rating, Crabgrass, Large” value [1, 13]?
Answer: 100

Question: What about the “Plant response rating, Crabgrass, Large” value [1, 14] of the same compound?
Answer: 100

Question: What about the “Foxtail, Giant plant response rating” value [2, 11] of the same compound?
Answer: 80

Question: What about the “Foxtail, Giant plant response rating” value [2, 12] of the same compound?
Answer: 80

Question: And the “Plant response rating, Foxtail, Giant” value [2, 13]?
Answer: 100

Question: And the “Plant response rating, Foxtail, Giant” value [2, 14]?
Answer: 100

Question: And the “Plant response rating, Morningglory” value [3, 15]?
Answer: 80

Question: And the “Morningglory plant response rating” value ([3]; Postemergence, 500 g ai/ha, visual rating on 0 to 100 scale (0 no effect, 100 complete control), approximately ten days)?
Answer: 90

Question: What about the “Plant response rating, Morningglory” value [3, 16] of the same compound?
Answer: 40

Question: What about the “Plant response rating, Morningglory” value [3, 17] of the same compound?
Answer: 90

Question: What about the “Plant response rating, Velvetleaf” value [4, 15] of the same compound?
Answer: 100

Question: What about the “Plant response rating, Velvetleaf” value [4, 16] of the same compound?
Answer: 20

Question: What about the “Plant response rating, Velvetleaf” value [4, 17] of the same compound?
Answer: 70

Question: What about the “Plant response rating, Blackgrass” value [5, 18] of the same compound?
Answer: 40

Question: What about the “Plant response rating, Blackgrass” value [5, 19] of the same compound?
Answer: 50

Question: What about the “Plant response rating, Blackgrass” value [5, 20] of the same compound?
Answer: 70

Question: And the “Plant response rating, Blackgrass” value [5, 21]?
Answer: 80

Question: What about the “Plant response rating, Blackgrass” value [5, 22] of the same compound?
Answer: 60

Question: What about the “Plant response rating, Blackgrass” value [5, 23] of the same compound?
Answer: 85

Question: What about the “Plant response rating, Blackgrass” value [5, 24] of the same compound?
Answer: 90

Question: What about the “Plant response rating, Blackgrass” value [5, 25] of the same compound?
Answer: 90

Question: What about the “Plant response rating, Bromegrass, Downy” value [6, 18] of the same compound?
Answer: 45

Question: What about the “Plant response rating, Bromegrass, Downy” value [6, 19] of the same compound?
Answer: 55

Question: What about the “Plant response rating, Bromegrass, Downy” value [6, 20] of the same compound?
Answer: 60

Question: And the “Plant response rating, Bromegrass, Downy” value [6, 21]?
Answer: 65

Question: What about the “Plant response rating, Bromegrass, Downy” value [6, 22] of the same compound?
Answer: 5

Question: What about the “Plant response rating, Bromegrass, Downy” value [6, 23] of the same compound?
Answer: 40

Question: What about the “Plant response rating, Bromegrass, Downy” value [6, 24] of the same compound?
Answer: 50

Question: What about the “Plant response rating, Bromegrass, Downy” value [6, 25] of the same compound?
Answer: 80

Question: What about the “Plant response rating, Galium” value [7, 18] of the same compound?
Answer: 80

Question: What about the “Plant response rating, Galium” value [7, 19] of the same compound?
Answer: 90

Question: What about the “Plant response rating, Galium” value [7, 20] of the same compound?
Answer: 90

Question: What about the “Plant response rating, Galium” value [7, 21] of the same compound?
Answer: 90

Question: What about the “Plant response rating, Galium” value [7, 22] of the same compound?
Answer: 80

Question: And the “Plant response rating, Galium” value [7, 23]?
Answer: 100

Question: And the “Plant response rating, Galium” value [7, 24]?
Answer: 100

Question: And the “Plant response rating, Galium” value [7, 25]?
Answer: 100

Question: And the “Plant response rating, Johnsongrass” value [8, 18]?
Answer: 20

Question: And the “Plant response rating, Johnsongrass” value [8, 19]?
Answer: 20

Question: And the “Plant response rating, Johnsongrass” value [8, 20]?
Answer: 55

Question: And the “Plant response rating, Johnsongrass” value [8, 21]?
Answer: 98

Question: And the “Plant response rating, Johnsongrass” value [8, 22]?
Answer: 15

Question: What about the “Plant response rating, Johnsongrass” value [8, 23] of the same compound?
Answer: 80

Question: What about the “Plant response rating, Johnsongrass” value [8, 24] of the same compound?
Answer: 98

Question: What about the “Plant response rating, Johnsongrass” value [8, 25] of the same compound?
Answer: 98

Question: And the “Plant response rating, Morningglory” value [9, 18]?
Answer: 70

Question: What about the “Plant response rating, Morningglory” value [9, 19] of the same compound?
Answer: 98

Question: What about the “Plant response rating, Morningglory” value [9, 20] of the same compound?
Answer: 98

Question: And the “Plant response rating, Morningglory” value [9, 21]?
Answer: 98

Question: What about the “Plant response rating, Morningglory” value [9, 22] of the same compound?
Answer: 20

Question: And the “Plant response rating, Morningglory” value [9, 23]?
Answer: 20

Question: What about the “Plant response rating, Morningglory” value [9, 24] of the same compound?
Answer: 55

Question: And the “Plant response rating, Morningglory” value [9, 25]?
Answer: 75

Question: And the “Plant response rating, Nightshade” value ([10]; 31 g ai/ha, scale of 0 to 100, 0 is no effect, 100 is complete control)?
Answer: 25

Question: What about the “Plant response rating, Nightshade” value ([10]; 62 g ai/ha, scale of 0 to 100, 0 is no effect, 100 is complete control) of the same compound?
Answer: 60

Question: And the “Plant response rating, Nightshade” value ([10]; 125 g ai/ha, scale 0 to 100, 0 no effect, 100 complete control)?
Answer: 85

Question: What about the “Plant response rating, Nightshade” value ([10]; 250 g ai/ha, scale 0 to 100, 0 no effect, 100 complete control) of the same compound?
Answer: 85
